Patent US20200397816A1, “METHODS TO TREAT INFLAMMATORY AND SMOOTH MUSCLE CELL PROLIFERATION DISORDERS” (THE TRUSTEES OF INDIANA UNIVERSITY, priority 2019, published 2020)

What was measured:
EGR1 [1] = assay: EGR1 transcripts qRT-PCR in RAW 264.7 macrophages; format: cell-based, mouse; conditions: 10 μM pretreatment, EMAP II 45 minutes, normalized against Hprt1
Protocol: (§1) RAW 264.7 (ATCC) mouse macrophages and Human Embryonic Kidney (HEK) 293T cells were cultured in DMEM media with 10% fetal bovine serum […] and glutamine HEPES buffer and beta-mercaptoethanol were added to the growth medium used for RAW 264.7 macrophages. […]
(§2) Total RNA was extracted with TriZol using standard RNA extraction protocol and reverse transcribed with SuperScript III Reverse Transcriptase (Thermo Fischer Scientific). SphK1, Tnf, Il6, EGR1, Gapdh, Hprt1 transcripts were quantified using PrimePCR SYBR Green assays from BioRad. […]
(§3) Total RNA was extracted with TriZol using standard RNA extraction protocol and reverse transcribed with SuperScript III Reverse Transcriptase (Thermo Fisher Scientific). SPHK1, Tnf, Il6, EGR1, Gapdh, Hprt1 transcripts were quantified using PrimePCR SYBR Green assays from BioRad.

EGR1 [2] = assay: EGR1 transcripts qRT-PCR in hPASMC; format: cell-based, human; conditions: SMCs; 10 μM pretreatment; EMAP II 45 minutes; normalized against Gapdh
Protocol: as §1, §2, §3

EGR1 [3] = assay: EGR1 protein western blot and immunofluorescence in hPASMC; format: cell-based, human; conditions: SMCs (hPASMC); MEK inhibitor 10 μM; EMAP II 1 hour
Protocol: (§4) RAW 264.7 (ATCC) mouse macrophages and Human Embryonic Kidney (HEK) 293T cells were cultured in DMEM media with 10% fetal bovine serum […] and glutamine HEPES buffer and beta-mercaptoethanol were added to the growth medium used for RAW 264.7 macrophages. Primary human pulmonary artery smooth muscle cells (hPASMC) purchased from Lonza (Walkersville, Md.) were cultured in complete growth medium containing smooth muscle growth media-2 (SmGM-2) with 10% FBS and growth factors provided as a kit by the supplier (Lonza, (Walkersville, Md.). THP-1 human monocyte cells were cultured in RPMI 1640 with 10% FBS and glutamine Cells were cultured in a humidified atmosphere with 5% CO2 at 370 C. For all studies passages 5-14 were used for RAW 264.7 and passages 5-10 were used for hPASMCs. For treatment studies, subconfluent cells plated in multi-well plates were serum starved and if required, pretreated for with inhibitors before stimulating with 2 μg/mL recombinant EMAP II.
(§5) After appropriate treatments, protein lysates were prepared by using RIPA buffer supplemented with phosphatase and protease inhibitors (Thermo Fischer Scientific). Alpha-tubulin was used as a loading control. For nuclear and cytoplasmic fractionation, NE-PER kit from Thermo Fischer Scientific was used. Western blots were performed according to standard methods and quantified using densitometry using Image Studio Lite software from LI-COR Biosciences.
Primary hPASMCs cells or human THP-1 macrophages were seeded in Nunc Lab-Tek™ II 4-well imaging plates (Thermo Fisher Scientific) chamber well slides and cultured in growth medium. After the serum starvation cells were stimulated with EMAP II. Treated cells were rinsed with PBS and fixed with 4% paraformaldehyde at room temperature for 15 min and permeabilized with 0.1% Triton X-100 at room temperature for 10 min After washing with PBS three times, the cells were incubated with EGR1, 1amin, or pSphK1 antibody at 40C overnight. The cells were then rinsed with PBS three times and subsequently incubated with respective secondary antibody conjugated with Alex Fluor 647 and 488 or Phalloidin 488 at room temperature for 1 h. The cells were rinsed with PBS three times and coverslips were mounted with SlowFade Gold Antifade Mountant with DAPI (Thermo Fischer Scientific) and the cells were examined under Olympus microscope with 40× for EGR1 expression and with 60× for pSphK1 water immersion.
Knockdown of endogenous EGR1 was carried out by transfecting with 25 nM final concentration of ON-TARGETplus siRNAs specific for EGR1 or non-targeting control purchased from GE Dharmacon (Lafayette,CO) using Viromer Blue (Lipocalyx) per manufacturer's instructions. Cells were stimulated with EMAP II 48 h post-transfection.
RAW 264.7 (ATCC) mouse macrophages and HEK-293T (ATCC) cells were cultured in DMEM media with 10% (v/v) fetal bovine serum (FBS) and 2 mM glutamine HEPES buffer and beta-mercaptoethanol were added to the growth medium used for RAW 264.7 macrophages. […]

EGR1 [4] = assay: EGR1 protein western blot (whole cell lysates, nuclear fractions) in RAW 264.7 macrophages; format: cell-based, mouse; conditions: macrophages (RAW 264.7); MEK inhibitor 10 μM; EMAP II 2 hours
Protocol: as §4, §5
RAW 264.7 (ATCC) mouse macrophages and HEK-293T (ATCC) cells were cultured in DMEM media with 10% (v/v) fetal bovine serum (FBS) and 2 mM glutamine HEPES buffer and beta-mercaptoethanol were added to the growth medium used for RAW 264.7 macrophages. Primary human pulmonary artery smooth muscle cells (hPASMC) purchased from Lonza (Walkersville, Md.) were cultured in complete growth medium containing smooth muscle growth media-2 (SmGM-2) with 10% FBS and growth factors provided as a kit by the supplier (Lonza, (Walkersville, Md.). THP-1 human monocyte cells were cultured in RPMI 1640 with 10% FBS and glutamine Cells were cultured in a humidified atmosphere with 5% CO2 at 37° C. For all studies passages 5-14 were used for RAW 264.7 and passages 5-10 were used for hPASMCs. For treatment studies, subconfluent cells plated in multi-well plates were serum starved and if required, pretreated with inhibitors before stimulation with 2 μg/mL recombinant EMAP II.
as §5, with “Fisher” for “Fischer”, “For nuclear and cytoplasmic fractionation, NE-PER kit from Thermo Fischer Scientific was used.” left out

pSTAT3 (Y705) = assay: EMAP II induced pSTAT3 western blot in RAW 264.7 macrophages; format: cell-based, mouse; conditions: RAW 264.7 macrophages, EMAP II 24 hours
Protocol: as §5
as §5, with “(Thermo Fisher” for “(Thermo Fischer”

[5] = system: STAT3 transcription reporter plasmid; assay: STAT3 transcription reporter luciferase assay in HEK293-T cells; format: cell-based, human; conditions: inhibitor pretreatment 1 hour, luciferase after 24 hours
Protocol: (§6) Transfection and luciferase assay. Human Embryonic Kidney (HEK) 293-T cells cultured in DMEM media containing 10% serum were reverse co-transfected with pGL4.47fluc2P/SIE/Hygrol and pGL4.74 [hRluc/TK] using Attractene Transfection Reagent (301005, Qiagen) as per manufacturer's protocol. Pretreated with inhibitors for 1 hour as required. After the treatment cells were incubated for 24 hours and luciferase activity was measured using Dual-Glo Luciferase Assay (E2920, Promega) per manufacturer's guidelines.
as §6, with “HEK” for “Transfection and luciferase assay. Human Embryonic Kidney (HEK)”

CC(=O)Nc1cccc(-n2c(=O)n(C3CC3)c(=O)c3c(Nc4ccc(I)cc4F)n(C)c(=O)c(C)c32)c1 [iERK1, Trametinib, reference compound]
EMAP II induced EGR1 transcription (EGR1 [1]): inhibited | EMAP II induced EGR1 transcription (EGR1 [2]): inhibited | EMAP II induced EGR1 protein expression (EGR1 [3]): blocked | EMAP II induced EGR1 protein expression (EGR1 [4]): blocked

O=C(NOCC1CC1)c1cc(Br)c(F)c(F)c1Nc1ccc(I)cc1Cl [iERK, PD184161, reference compound]
EMAP II induced pSTAT3 (pSTAT3/STAT3) (pSTAT3 (Y705); inhibitor pretreatment 10 μM): significantly inhibited | EMAP II induced EGR1 protein expression (EGR1 [3]): blocked | EMAP II induced EGR1 protein expression (EGR1 [4]): blocked

N#CC[C@H](C1CCCC1)n1cc(-c2ncnc3[nH]ccc23)cn1 [iJAK1/2, Ruxolitinib]
EMAP II induced pSTAT3 (pSTAT3/STAT3) (pSTAT3 (Y705); inhibitor pretreatment 1 μM): significantly inhibited

CCCCCCc1cccc(NC(=O)[C@H](N)CCP(=O)(O)O)c1 [iS1PR1, W146]
EMAP II induced pSTAT3 (pSTAT3/STAT3) (pSTAT3 (Y705); inhibitor pretreatment 1 μM): significantly inhibited

Cc1nn(C)c2nc(NNC(=O)Nc3cc(Cl)nc(Cl)c3)cc(C(C)C)c12 [iS1PR2, JTE 013]
EMAP II induced pSTAT3 (pSTAT3/STAT3) (pSTAT3 (Y705); inhibitor pretreatment 1 μM): significantly inhibited

CC(C)(C)C(=O)/C(=N/c1ccc(Cl)cc1)NNc1ccc(Cl)cc1 [iS1PR3, TY 52156]
EMAP II induced pSTAT3 (pSTAT3/STAT3) (pSTAT3 (Y705); inhibitor pretreatment 1 μM): significantly inhibited

Cc1cc(CS(=O)(=O)c2ccccc2)cc(OCc2ccc(CN3CCC[C@@H]3CO)cc2)c1 [iSphK1, PF543]
EMAP II induced pSTAT3 (pSTAT3/STAT3) (pSTAT3 (Y705); inhibitor pretreatment 100 nM): significantly inhibited | EMAP II induced pSTAT3 (pSTAT3/STAT3) (pSTAT3 (Y705); inhibitor pretreatment 100 nM, listed as PF543): inhibited | EMAP II induced pSTAT3 (pSTAT3/STAT3) (pSTAT3 (Y705); inhibitor pretreatment 100 nM, listed as iSPHK1): significantly inhibited | EMAP II induced luminescence of STAT3 transcription reporter plasmid [5]: significantly inhibited
